Results published in US20180066327A1, “Methods to Accelerate Wound Healing in Diabetic Subjects” (Joslin Diabetes Center, Inc., priority 2015, published 2018).
Values belong to the molecule of their own block, whether it stands above or below them.

Key:
Assay type in all cases: cell-based, human
[1] = system: Medalist fibroblasts; test: VEGF protein secreted to the medium (ELISA)
Description: Skin were obtained from 26 Medalists with various complications and from 7 age-matched non-diabetic controls during post-mortem period. Primary fibroblast cultures were derived from human skin samples, sustained in DMEM (10-027, Cellgro Inc.) supplemented with 10% heat inactivated fetal bovine serum, over a period of 4 weeks, in a 6-well plate, with media supplementation every other day. Subsequently, as fibroblasts emerged from the primary explant, a brief trypsinization (0.25% Trypsin) was used to separate and further expand the cells in a 10 cm^2 plate. In all experiments fibroblasts were used between passages 2-5.
(§1) Fibroblasts with passage≦5 were grown and expanded in 10 cm plate with DMEM supplemented with 10% FBS. Cells were stimulated with the conditions and compounds as indicated after overnight starvation in DMEM with 0.1% BSA without FBS. Cells were lysed and protein amounts were measured with BCA kit (Bio-Rad, Hercules, Calif.). Protein lysates (20-30 μg) were separated by SDS-PAGE, transferred, blocked and detected as we described before (Park et al., Mol Cell Biol. 2013 August; 33(16):3227-41). The signal intensity was quantified using ImageJ software (SynGene, Frederick, Md.). For immune precipitation, tissue lysates were incubated with the appropriate antibodies followed by the addition of protein A/G Sepharose beads (Santa Cruz Biotechnology, Inc., Santa Cruz, Calif.). The precipitated proteins were subjected to SDS-PAGE followed by immunoblotting with the appropriate antibodies as described before (Park et al., Mol Cell Biol. 2013 August; 33(16):3227-41).
The transfection of siRNA was performed using the Ambion Silencer Select Validated siRNA kit for primary cells (Ambion by Life Technology, Carlsband, Calif.), in 60-70% confluent fibroblast. For evaluating insulin's effect on VEGF production, cells were washed twice with PBS, and starved overnight with DMEM containing 1% BSA. Insulin (100 nM) was added to each for additional 16 h. After incubation, media were collected for VEGF measurement by ELISA and the cell lysate were collected for measuring protein concentration.
Protein levels of VEGF in the medium were measured using Quantikine R&D System kit (Minneapolis, Minn.). This kit determines mainly VEGF165. Glycated hemoglobin (HbA1c) was determined by HPLC (Tosoh G7 and 2.2, Tokyo, Japan). Serum creatinine was determined by spectrophotometry. Urine albumin and creatinine were determined by turbidimetric methods. Serum C-peptide was determined by RIA (Beckman Coulter, Inc, Fullerton, Calif.).

[2] = system: Medalist fibroblasts; test: VEGF protein secreted to the medium (ELISA); details: fibroblasts from Medalists compared to controls; 10 ng/ml TGF for 24 hours
[3] = system: control fibroblasts; test: VEGF protein secreted to the medium (ELISA)
[4] = system: Medalist fibroblasts; test: IRS1 tyrosine phosphorylation immunoblot; details: 100 nM insulin
Procedure: as §1

[5] = system: control fibroblasts; test: IRS1 tyrosine phosphorylation immunoblot; details: fibroblasts of controls, 100 nM insulin
Procedure: as §1

[6] = system: Medalist fibroblasts; test: p-Tyr of insulin receptor beta subunit immunoblot; details: 100 nM insulin
Procedure: as §1

[7] = system: control fibroblasts; test: p-Tyr of insulin receptor beta subunit immunoblot; details: controls, 100 nM insulin
Procedure: as §1

[8] = system: Medalist fibroblasts; test: VEGF mRNA by real-time PCR; details: fibroblasts from Medalists, 100 nM insulin
Procedure: (§2) Real-time PCR was performed to evaluate mRNA expressions of VEGF, PDGF-B, Fibronectin, and PKCδ in cultured fibroblast and mice granulation tissue as we described before (Geraldes et al., Nat Med. 2009 November; 15(11):1298-306). PCR primers and probes are detailed in Table A. Human 36B4 or 18S ribosomal RNA expressions as indicated were used for normalization.

[9] = system: control fibroblasts; test: VEGF mRNA by real-time PCR; details: fibroblasts from controls, 100 nM insulin
Procedure: as §2

[10] = system: Medalist fibroblasts; test: p-AKT (Ser473) immunoblot; details: for p-AKT increase compared to untreated cells: Medalist fibroblasts, 100 nM insulin or 10 ng/ml PDGF-BB for 10 minutes; for p-AKT increase: 100 nM insulin 10 minutes
Procedure: as §1

[11] = system: control fibroblasts; test: p-AKT (Ser473) immunoblot; details: for p-AKT increase compared to untreated cells: 100 nM insulin or 10 ng/ml PDGF-BB for 10 minutes
Procedure: as §1

[12] = system: Medalist fibroblasts; test: Scratch wound migration assay; details: 10 ng/ml PDGF-BB or 100 nM insulin for 12 h
Procedure: (§3) Scratch wound migration assay—100% Confluent starved Medalist or control fibroblasts wounded, followed by incubation with 10 ng/ml PDGF-BB or 100 nM insulin for 12 hours. Phase contrast images of wounded areas were taken at time 0, 4, 6, 8 and 12 hours after stimulation, and migration was determined as described before (Ito et al., Am J Physiol Lung Cell Mol Physiol. 2014 Jul. 1; 307(1):L94-105).

[13] = system: control fibroblasts; test: Scratch wound migration assay; details: 10 ng/ml PDGF-BB or 100 nM insulin for 12 h
Procedure: as §3

[14] = fibroblasts of Medalists with CVD
[15] = fibroblasts of Medalists without CVD

Molecule: CN(C)CCCn1cc(C2=C(c3c[nH]c4ccccc34)C(=O)NC2=O)c2ccccc21 [GFX, 2[1-(3-dimethylaminopropyl)-1H-indol-3-yl]-3-(1H-indol-3-yl)-maleimide]
- fold increase in VEGF levels above basal ([1]; Medalist fibroblasts, inhibitor + 100 nM insulin (10 mM GFX or 3 uM rottlerin)): 4.74±0.94 fold
- fold increase in VEGF levels above basal ([1]; Medalist fibroblasts, inhibitor alone, no insulin (10 mM GFX or 3 uM rottlerin)): 2.55±0.43 fold

Molecule: COc1cccc(-c2cc(=O)c3ccccc3o2)c1N [PD98059]
- insulin-stimulated VEGF production ([1]; Medalist fibroblasts, 100 nM insulin in presence of 100 nM wortmanin or 10 μM PD98059): but not PD98059, significantly inhibited

Molecule: CN(C)C[C@@H]1CCn2cc(c3ccccc32)C2=C(C(=O)NC2=O)c2cn(c3ccccc23)CCO1 [RBX, Ruboxistaurin]
- insulin stimulated VEGF secretion ([1]; Medalist fibroblasts, 100 nM insulin with 100 nM RBX): failed to increase

Molecule: CC(=O)c1c(O)c(C)c(O)c(Cc2c(O)c3c(c(C(=O)/C=C/c4ccccc4)c2O)OC(C)(C)C=C3)c1O [rottlerin, Rottlerin]
- fold increase in VEGF levels above basal ([1]; Medalist fibroblasts, inhibitor + 100 nM insulin (GFX or 3 uM rottlerin)): 5.25±0.56 fold
- fold increase in VEGF levels above basal ([1]; Medalist fibroblasts, inhibitor alone, no insulin (GFX or 3 uM rottlerin)): 3.74±0.49 fold

Molecule: TGF-β
- VEGF induced by TGF-β [2]: blunted

- p-Tyr of the insulin receptor beta subunit, increase ([6]; Medalists with CVD): 4.7 fold
- p-Tyr of the insulin receptor beta subunit, increase ([6]; Medalists without CVD): 4.9 fold
- p-Tyr of the insulin receptor beta subunit, increase [7]: 5.2 fold
Molecule: insulin
- VEGF production, fold ([3]; Ad-GFP infected control fibroblasts, with 100 nM insulin 16 hours): 2.89±0.67 fold
- increase in VEGF protein levels ([3]; fibroblasts from controls, 100 nM insulin): 66%
- IRS1 tyrosine phosphorylation at site 649 (p-Tyr649), increase [4, 14]: 34%
- IRS1 tyrosine phosphorylation at site 911 (p-Tyr911), increase [4, 14]: 26%
- IRS1 tyrosine phosphorylation at site 649 (p-Tyr649), increase [4, 15]: 63%
- IRS1 tyrosine phosphorylation at site 911 (p-Tyr911), increase [4, 15]: 40%
- IRS1 tyrosine phosphorylation at site 649 (p-Tyr649), increase [5]: 53%
- IRS1 tyrosine phosphorylation at site 911 (p-Tyr911), increase [5]: 52%
- stimulation of VEGF mRNA production [8]: failed to significantly stimulate
- increase in VEGF mRNA [9]: 2.4 fold
- VEGF secretion, fold increase ([1]; Ad-GFP infected Medalist fibroblasts, with 100 nM insulin 16 hours): 1.51±0.18 fold
- VEGF secretion, fold increase above basal ([1]; Medalist fibroblasts, insulin alone, siRNA experiment): 1.28±0.10 fold
- fold increase in VEGF levels above basal ([1]; Medalist fibroblasts, 100 nM insulin alone, GFX experiment): 1.59±0.10 fold
- fold increase in VEGF levels above basal ([1]; Medalist fibroblasts, 100 nM insulin alone, rottlerin experiment): 1.50±0.31 fold
- VEGF protein levels after insulin stimulation ([1]; Medalists with CVD (basal 75.5±13.7)): 106.0±12.0 pg/mg protein
- VEGF protein levels after insulin stimulation ([1]; Medalists without CVD (basal 57.5±8.5)): 99.1±8.4 pg/mg protein
- stimulation of VEGF protein ([1]; fibroblasts from Medalists, 100 nM insulin): failed to significantly stimulate
- p-AKT increase compared to untreated cells [10]: 2 fold
- p-AKT increase [10, 14]: 1.8 fold
- p-AKT increase [10, 15]: 2.4 fold
- p-AKT increase ([11]; 100 nM insulin 10 minutes (CVD comparison experiment)): 4.0 fold
- p-AKT increase compared to untreated cells [11]: 3.6 fold
- cell migration [12]: failed to significantly increase
- cell migration [13]: 1.7 fold

B1: PDGF-BB: platelet-derived growth factor, 10 ng/ml stimulus (protein, UniProt P01127 82-190, looked up)
Platelet-derived growth …: SLGSLTIAEPAMIAECKTRTEVFEISRRLIDRTNANFLVWPPCVEVQRCSGCCNNRNVQCRPTQVQLRPVQVRKIEIVRKKPIFKKATVTLEDHLACKCETVAAARPVT
modifications: homodimer BB
notes: platelet-derived growth factor, 10 ng/ml stimulus
- p-AKT increase compared to untreated cells [10]: 7 fold
- p-AKT increase compared to untreated cells [11]: 7 fold
- cell migration [12]: increased cell migration significantly
- cell migration [13]: increased cell migration significantly
